Results: patent US20160221948A1, “NITROGEN-CONTAINING SATURATED HETEROCYCLIC COMPOUND” (SUMITOMO CHEMICAL COMPANY, LIMITED, priority 2013, published 2016)

How the values were obtained:
[1] = target: human SSTR4 (Homo sapiens, UniProt P31391); assay: Evaluation of agonist activities using human SSTR4-stably expressing cells (aequorin luminescence); assay type: cell-based; design: expressed in transfected cells; host or cells: HEK293; conditions: for SSTR4 agonist activity compared with other compounds: Tables 25 to 27; for EC50: luminescence signal, 1 μmol/L somatostatin taken as 100%
human SSTR4, sequence (P31391 whole entry): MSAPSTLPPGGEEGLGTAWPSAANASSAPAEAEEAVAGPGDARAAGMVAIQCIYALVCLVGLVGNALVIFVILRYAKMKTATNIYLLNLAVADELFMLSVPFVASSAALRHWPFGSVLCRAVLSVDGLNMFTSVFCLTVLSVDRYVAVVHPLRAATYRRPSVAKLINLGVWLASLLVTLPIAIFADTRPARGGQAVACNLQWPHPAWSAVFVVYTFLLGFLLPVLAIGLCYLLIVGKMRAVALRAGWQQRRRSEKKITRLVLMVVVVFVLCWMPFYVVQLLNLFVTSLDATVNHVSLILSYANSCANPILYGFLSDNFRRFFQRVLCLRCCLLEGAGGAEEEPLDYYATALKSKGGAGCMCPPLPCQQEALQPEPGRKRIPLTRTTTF
Description: Evaluation of Agonist Activities Using Cells that stably expressing human-derived SSTR4 (human SSTR4-stably expressing cells)
(1) Human SSTR4-Stably Expressing Cells
Human SSTR4-stably expressing cells were prepared, and cultured. Specifically, HEK293 cells, human kidney-derived cells, were used as host cells. By introducing pcDNA3.1 (cat. No. V79020, invitrogen, Carlsbad, Calif., USA) to which human SSTR gene was inserted into HEK293 cells, human SSTR4-stably expressing cell line was obtained. For selection, G418 (cat. No. 16513-84, Nacalai tesque, Japan) was used.
As the culture medium, D-MEM medium (cat. No. 11995, GIBCO, USA), containing 10% FBS and 200 μg/mL G418, was used, the culture was performed in a 225 cm^2 flask (cat. No. 11-006-010, Iwaki, Japan).
At about 80% confluence, the cells were harvested by treating with 20-fold diluted 0.25% Trypsin-EDTA (cat. No. 35554-64, Nacalai, tesque, Japan). The harvested cells were prepared at a reaction medium composed of Hanks Buffer (cat. No. 14065-056, invitrogen, Carlsbad, Calif., USA)/20 mM Hepes (cat. No. 15630-080, invitrogen, Carlsbad, Calif., USA), and 0.1% BSA (cat. No. A7906, Sigma Aldrich, USA) to 70000 cells/mL. Gα16 and apoaequorin were transiently introduced to the harvested cells, and the cells were seeded to a 384 well plate (cat. No. 781090, Greiner, Germany) at about 2000 cells/30 μL/well. On the next day of cell seeding, Coelenterazine H (cat. No. S2011, Promega, USA) was added to each well (10 μL/well) to make a final concentration of 0.5 μmol/L, and the plate was centrifuged. Then, the plate was left at room temperature for 4 hours in shaded state.
(2) Preparation of Test Compounds
DMSO solution of each test compound having 1000-fold larger concentration than the final concentration was prepared. The DMSO solutions were made to have 10-fold concentration than the final concentration with Hanks/20 mmol/L Hepes/0.1% BSA.
(3) Evaluation of Agonist Activity
For detection of luminescence signal due to SSTR4-stimulation, FDSS7000 (manufactured by Hamamatsu Photonics K.K.) was used. To plates having cells and the luminescence substrate, solutions of test compounds were added, then each luminescence signal was measured for 90 seconds, and each relative luminescence unit (RLU) was calculated. Based on luminescence signal from the wells to which a 1 μmol/L somatostatin solution was added taken as 100%, agonist activity of each test compound was evaluated.

[2] = Pharmacokinetic test (PK test) using rodents; assay type: in vivo; conditions: mouse, brain and plasma; mice, 10 mg/kg oral, an hour and 4 hours after; read-out: brain-plasma concentration ratio
Description: Moreover, it was verified, as the results of a pharmacokinetic test (PK test) using rodents, that the compound of the present invention has more excellent in vivo kinetics, central nervous system penetration, and exposure level, compared with the pyrrolidine derivative described in Patent Literature 1. In particular, the following Test Example 8 was performed.
Pharmacokinetic Test (PK Test) Using Rodents
Compounds of the present invention were orally administered to mice at a dose of 10 mg/kg, and an hour and 4 hours after, the plasma and the brain were collected, concentrations of the administered compounds were measured by LC/MS/MS. As well, protein binding rates in the plasma and the brain were measured with equilibrium dialysis method, and concentrations of non-binding compounds were calculated. The brain-plasma concentration ratio was about 5 in any cases of an hour and 4 hours after for compounds obtained in Examples 7, 14, 15, 16, 17, 18, 20, 21, 27, 40, and 50, which indicated excellent central nervous system penetration.

[3] = tested on: Slc:ddY mice; assay: Mouse novel object recognition test (mORT); assay type: in vivo; conditions: 3 mg/kg (oral), administered before the first trial
Description: Evaluation of cognitive function using mouse novel object recognition test (hereinafter, may be called “mORT”)
In the mORT using Slc:ddY mice (male, Japan SLC, Inc.) with body weight of 25-45 g or 35-40 g, memory deterioration to familiar subject depending on the interval time between the first trial (training) and the second trial (test) is observed. If the second trial is performed 24 hours after performing the first trial, significant forgetting is observed. […] […] (discrimination index as indexes for cognitive function are shown: 0.5% MC receiving group, 0.054±0.026; 3 mg/kg receiving group, 0.245±0.066.)

[4] = tested on: Slc:ddY mice; assay: Mouse Y-shaped maze test, scopolamine-induced memory impairment; assay type: in vivo; conditions: for spontaneous alternations: Scopolamine HBr 0.6 mg/kg subcutaneous
Description: Evaluation of amelioration in cognitive impairment using mouse Y-shaped maze test (hereinafter, may be called “Y-maze test”)
In the Y-maze test using Slc:ddY mice (male, Japan SLC, Inc.) with body weight of 25-35 g or 27-30 g, when 0.6 mg/kg of Scopolamine HBr (cat. No. S0929, Sigma Aldrich, USA) is subcutaneously administered to mice, memory impairment is caused, and reducing in spontaneous alternation is observed. Accordingly, mice were pre-treated by orally receiving compounds involved with the present invention, and ameliorating action in memory impairment was evaluated. […] (hereinafter, spontaneous alternations in each group in Example 21 are shown: 0.5% MC receiving group, 71.2±3.5; Scopolamine receiving group, 47.5±2.6; 1 mg/kg receiving group, 60.7±2.6; 3 mg/kg receiving group, 64.6±2.2.)

CN1CCCC(C(=O)NC(C)(C)c2cc(Cl)ccc2Cl)C1 (stereo not drawn) [Example 15]
SSTR4 agonist activity compared with other compounds [1]: stronger SSTR4 agonist activity
EC50 [1]: 3.5 nM
Kp [2]: ~5

CN1CCCC(C(=O)NC(C)(C)c2cccc(Cl)c2Cl)C1 (stereo not drawn) [Example 16]
SSTR4 agonist activity compared with other compounds [1]: stronger SSTR4 agonist activity
EC50 [1]: 2.3 nM
Kp [2]: ~5

Cc1ccc(Cl)cc1C(C)(C)NC(=O)[C@H]1CCCN(C)C1 [Example 50, (3S)—N-[2-(5-chloro-2-methylphenyl)propane-2-yl]-1-methylpiperidine-3-carboxamide]
EC50 [1]: 4.3 nM
Kp [2]: ~5

CN1CCC[C@H](C(=O)NC(C)(C)c2cccc3ccccc23)C1 [Example 2, (3S)-1-methyl-N-[2-(naphthalene-1-yl)propane-2-yl]pyperidine-3-carboxamide]
memory enhancing action [3]: a tendency to enhance memory
SSTR4 agonist activity compared with other compounds [1]: stronger SSTR4 agonist activity
spontaneous alternations ([4]; 1 mg/kg oral): 59.6±3.2
spontaneous alternations ([4]; 3 mg/kg oral): 65.0±1.8
ameliorating action in memory impairment ([4]; at 1 or 3 mg/kg (oral)): significant ameliorating action in memory impairment

CN1CCC[C@H](C(=O)NC(C)(C)c2ccc(Cl)cc2Cl)C1 [Example 20, (3S)—N-[2-(2,4-dichlorophenyl)propane-2-yl]-1-methylpiperidine-3-carboxamide]
SSTR4 agonist activity compared with other compounds [1]: stronger SSTR4 agonist activity
EC50 [1]: 1.3 nM
Kp [2]: ~5

CN1CCCC(C(=O)NC(C)(C)c2ccc(Cl)cc2Cl)C1 (stereo not drawn) [Example 17]
SSTR4 agonist activity compared with other compounds [1]: stronger SSTR4 agonist activity
EC50 [1]: 2.3 nM
Kp [2]: ~5

Cc1c(Cl)cccc1C(C)(C)NC(=O)[C@H]1CCCN(C)C1 [Example 27, (3S)—N-[2-(3-chloro-2-methylphenyl)propane-2-yl]-1-methylpiperidine-3-carboxamide]
SSTR4 agonist activity compared with other compounds [1]: stronger SSTR4 agonist activity
EC50 [1]: 2.1 nM
Kp [2]: ~5

COc1ccc(F)cc1C(C)(C)NC(=O)[C@H]1CCCN(C)C1 [Example 54, (3S)—N-[2-(5-fluoro-2-methoxylphenyl)propane-2-yl]-1-methylpiperidine-3-carboxamide]
EC50 [1]: 8.2 nM

CN1CCC[C@H](C(=O)NC(C)(C)c2cccc(F)c2Cl)C1 [Example 71, (3S)—N-[2-(2-chloro-3-fluorophenyl)propane-2-yl]-1-methylpiperidine-3-carboxamide]
EC50 [1]: 3.3 nM

CN1CC(O)CC(C(=O)NC(C)(C)c2cccc3ccccc23)C1 (stereo not drawn) [Example 83]
EC50 [1]: 7.4 nM

Cc1c(Cl)cccc1C(C)(C)NC(=O)C1CCCN(C)C1 (stereo not drawn) [Example 14]
EC50 [1]: 5.7 nM
Kp [2]: ~5

CN1CC[C@@H](c2ccccc2)[C@H](C(=O)NC(C)(C)c2cccc(Cl)c2Cl)C1 (relative stereo) [Example 106]
EC50 [1]: 2 nM

CN1CCC[C@H](C(=O)NC(C)(C)c2ccsc2)C1 [Example 59]
EC50 [1]: > 100 nM

CN1CCC[C@H](C(=O)NC(C)(C)c2cc(Cl)cc(Cl)c2)C1 [Example 18]
SSTR4 agonist activity compared with other compounds [1]: stronger SSTR4 agonist activity
EC50 [1]: 2 nM
Kp [2]: ~5

CN1CCC[C@H](C(=O)NC(C)(C)c2ccccc2Cl)C1 [Example 40, (3S)—N-[2-(2-chlorophenyl)propane-2-yl]-1-methylpiperidine-3-carboxamide]
EC50 [1]: 4.8 nM
Kp [2]: ~5

COc1ccc(Cl)cc1C(C)(C)NC(=O)[C@H]1CCCN(C)C1 [Example 51, (3S)—N-[2-(5-chloro-2-methoxylphenyl)propane-2-yl]-1-methylpiperidine-3-carboxamide]
EC50 [1]: 5 nM

CN1CCC[C@H](C(=O)NC(C)(C)c2cccc(S(C)(=O)=O)c2)C1 [Example 62]
EC50 [1]: > 100 nM

CCCN1CCCC(C(=O)NC(C)(C)c2cccc3ccccc23)C1 (stereo not drawn) [Example 117]
EC50 [1]: 6.9 nM

C[C@@H]1CC[C@H](C(=O)NC(C)(C)c2cccc3ccccc23)CN1C (relative stereo) [Example 81]
SSTR4 agonist activity compared with other compounds [1]: stronger SSTR4 agonist activity
EC50 [1]: 3.4 nM

CCCN1CCC[C@H](C(=O)NC(C)(C)c2cccc3ccccc23)C1 [Example 114]
EC50 [1]: 6.2 nM

CN1CCCC(C(=O)NC(C)(C)c2cc(Cl)cc(Cl)c2)C1 (stereo not drawn) [Example 7]
SSTR4 agonist activity compared with other compounds [1]: stronger SSTR4 agonist activity
EC50 [1]: 4.3 nM
Kp [2]: ~5

Cc1cccc(C(C)(C)NC(=O)[C@H]2CCCN(C)C2)c1 [Example 44]
EC50 [1]: 28.2 nM

COC[C@@H]1CC[C@H](C(=O)NC(C)(C)c2cccc3ccccc23)CN1C (relative stereo) [Example 105]
EC50 [1]: > 100 nM

CN1CCC[C@H](C(=O)NC(C)(C)c2ccc(Br)cc2)C1 [Example 68]
EC50 [1]: > 100 nM

CN1CCC[C@H](C(=O)NC(C)(C)c2cccnc2)C1 [Example 57]
EC50 [1]: > 100 nM

Cc1cccc(C(C)(C)NC(=O)[C@@H]2CC[C@H](C)N(C)C2)c1Cl (relative stereo) [Example 88]
EC50 [1]: 7.5 nM

CN1CCCC(C(=O)NC2(c3cccc4ccccc34)CC(F)(F)C2)C1 (stereo not drawn) [Example 4]
EC50 [1]: 343 nM

CC1CC(C(=O)NC(C)(C)c2cccc(Cl)c2Cl)CN(C)C1 (stereo not drawn) [Example 100]
EC50 [1]: 27.9 nM

Cc1cc(Cl)cc(C(C)(C)NC(=O)C2CCCN(C)C2)c1 (stereo not drawn) [Example 11]
EC50 [1]: 8.4 nM

CN1CCC[C@H](C(=O)NC(C)(C)c2ccccn2)C1 [Example 56]
EC50 [1]: > 100 nM

COC1CC(C(=O)NC(C)(C)c2cccc3ccccc23)CN(C)C1 (stereo not drawn) [Example 91]
EC50 [1]: 2.6 nM

CN1CCC[C@H](C(=O)NC(C)(C)c2ccc(Cl)c(Cl)c2)C1 [Example 22]
EC50 [1]: 10.9 nM

COc1ccccc1C(C)(C)NC(=O)[C@@H]1CN(C)CC[C@@H]1c1ccccc1 (relative stereo) [Example 107]
EC50 [1]: > 100 nM

Cc1cc(Cl)ccc1C(C)(C)NC(=O)[C@H]1CCCN(C)C1 [Example 28]
EC50 [1]: 12.2 nM

Cc1cccc(C(C)(C)NC(=O)C2CCCN(C)C2)c1Cl (stereo not drawn) [Example 13]
SSTR4 agonist activity compared with other compounds [1]: stronger SSTR4 agonist activity
EC50 [1]: 3.7 nM

COc1cc(Cl)ccc1C(C)(C)NC(=O)[C@H]1CCCN(C)C1 [Example 30, (3S)—N-[2-(4-chloro-2-methoxylphenyl)propane-2-yl]-1-methylpiperidine-3-carboxamide]
SSTR4 agonist activity compared with other compounds [1]: stronger SSTR4 agonist activity
EC50 [1]: 1.5 nM
